Experimental data published in US11623919B2, “Heterocyclic P2X7 antagonists” (AXXAM S.P.A., priority 2017, dated 2023).

Assays:
Type in all cases: cell-based
P2X7 receptor [1] = biological target: T1, P2X7 receptor (Homo sapiens, UniProt Q99572); experiment: YO-PRO-1 uptake assay; parameters: expressed in transfected cells; details: HEK-293 cells stably transfected with P2X7 receptor; Bz-ATP EC80 (30 μM); Low Divalent Cation Assay Buffer
T1 sequence (Q99572 1-595): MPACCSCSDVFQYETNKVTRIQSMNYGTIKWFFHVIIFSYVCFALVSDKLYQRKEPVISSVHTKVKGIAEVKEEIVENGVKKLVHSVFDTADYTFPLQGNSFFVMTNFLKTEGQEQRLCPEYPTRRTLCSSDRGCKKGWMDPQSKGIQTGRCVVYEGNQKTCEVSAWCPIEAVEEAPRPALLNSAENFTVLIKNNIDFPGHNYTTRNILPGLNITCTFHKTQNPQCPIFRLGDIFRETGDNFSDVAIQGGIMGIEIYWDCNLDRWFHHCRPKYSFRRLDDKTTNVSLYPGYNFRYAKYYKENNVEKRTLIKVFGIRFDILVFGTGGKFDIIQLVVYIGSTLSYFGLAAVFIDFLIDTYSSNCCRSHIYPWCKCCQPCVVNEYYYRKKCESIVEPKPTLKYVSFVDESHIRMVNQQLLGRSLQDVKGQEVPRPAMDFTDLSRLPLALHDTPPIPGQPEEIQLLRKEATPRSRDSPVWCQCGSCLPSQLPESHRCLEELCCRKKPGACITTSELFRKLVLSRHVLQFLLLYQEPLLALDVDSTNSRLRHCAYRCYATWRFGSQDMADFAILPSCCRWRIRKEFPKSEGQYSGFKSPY
Text: YO-PRO®-1 is a fluorescent DNA-binding dye with a MW of 374 Da (Molecular Probes®, cat. Y3603). This method is based upon the presumed ability of YO-PRO®-1 to enter through the dilated or “large pore form” of P2X7 receptor and to bind to intracellular DNA whereupon it increases many fold its fluorescence intensity. The dye ha an absorption spectrum compatible with excitation at 488 nm by argon laser sources and its emission wavelength is in the range of 515-575 nm. The aim of this assay was to validate the interaction of antagonists with P2X7 receptor using an alternative readout to Ca2+-sensitive fluorescent dyes.
HEK-293 cells stably transfected with P2X7 receptor were seeded overnight un growth medium at 20,000 cell/well in 384-well plate. 24 hours later, the medium was removed, the cells were washed with Low Divalent Cation Assay Buffer (0.3 mM Ca^2+ and 0 mM Mg^2+) and then pre-loaded with 20 μL/w of 5 μM YO-PRO®-1 dye.
FLIPRTETRA fluorescence measurement immediately started. Then 10 μL/w of test compounds and reference antagonist A438079 at 3×-concentration were injected with the FLIPRTETRA and the kinetic response over a period of five minutes was monitored. A second injection of 10 μL/w of 3× Bz-ATP EC80 (30 μM) was performed with the FLIPRTETRA and the signal of the emitted fluorescence was recorded for additional 60 minutes. All the experiment was carried out with a Low Divalent Cation Assay Buffer (0.3 mM Ca^2+ and 0 mM Mg^2+).
The effect of the test compounds was measured as percent inhibition vs the reference antagonist and IC50 values were calculated accordingly.

P2X7 receptor [2] = biological target: T1, P2X7 receptor; experiment: Automated patch-clamp (QPatch16X) P2X7 channel assay; parameters: expressed in transfected cells; host or cells: HEK-293; details: HEK-293 cells expressing P2X7 channels; whole-cell, held at -80 mV; 100 microM BzATP; compound 1, 10, 100 and 1000 nM; read-out: Q-Patch (IC50)
Protocol: In order to directly monitor the block of P2X7 channel, an electrophysiological assay was developed and implemented on the QPatch16X automated electrophysiology instrument.
HEK-293 cells expressing the P2X7 channels were cultured in modified EMEM.
72 hours before experiment, 5 million cells were seeded onto T225 flasks. Just before the experiment cells were washed twice, detached from the flask with trypsin-EDTA, re-suspended in the suspension solution and placed on the QPatch 16x.
The compounds (20 mM in a 100% DMSO) stored at −20° C. were prepared the day of the experiment (a first dilution 1:20 in 100% DMSO to prepare a 1 mM stock solution, then a 1 microM solution in external solution+a serial dilution 1:10).
The standard whole-cell voltage clamp experiments were performed at room temperature. From these experiments the multihole technology was used and the data were sampled at 2 KHz.
The intracellular solution contained (mM) 135 CsF, 10 NaCl, 1 EGTA, 10 HEPES, (pH 7.2 with CsOH) whereas the extracellular contained (mM) 145 NaCl, 4 KCl, 0.5 MgCl2, 1 CaCl2, 10 HEPES, 10 Glc (pH 7.4 with NaOH).
After establishment of the seal and the passage in the whole cell configuration, the cells were held at −80 mV. The P2XR7 current was evoked by applying 100 microM of BzATP alone (4 times) and then in the presence increasing concentrations of the compound under investigation (1, 10, 100 and 1000 nM).
The pre-incubation periods 5 to 8 contain increasing concentrations of the compound of interest (1, 10, 100 and 1000 nM), as illustrated in FIGURE (application protocol).
The maximal inward current evoked by BzATP in absence or presence of increasing concentrations of the compounds under investigation was measured and normalized. The potential […] effect was measured as % of control and as IC50 determined fitting the dose-response curves data with the following equation: Y=100/(1+10^((Log IC50−X)*HillSlope))

P2X7 receptor [3] = biological target: T1, P2X7 receptor; experiment: Screen Quest Fluo-8 No Wash Calcium Assay (Bz-ATP evoked Ca2+ influx, FLIPR); parameters: hP2X7 (IC50; nM); other: hP2X7; HEK-293 cells stably transfected with P2X7 receptor, Bz-ATP at EC80, Fluo-8 NW; potency; details: hP2X7; HEK-293 cells stably transfected with P2X7 receptor, Bz-ATP at EC80, Fluo-8 NW; potency ranges A-D
Procedure, shortened: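 Compounds were added to Fluo-8-loaded P2X7-transfected HEK-293 cells 5 min before an EC80 Bz-ATP challenge, and Ca2+ influx was then recorded for 3 min. Buffer held 0.3 mM Ca2+ and no Mg2+. Inhibition was normalised to A438079, giving IC50 values.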

IC50 (P2X7 receptor [1]) | IC50 (P2X7 receptor [2]) | IC50 (P2X7 receptor [3]) | Structure (SMILES)
42 nM | 18.1 nM | < 200 nM | O=c1onc(Cc2c(F)cccc2Cl)n1CC1CCCCCC1 [Example 92, 3-[(2-chloro-6-fluorophenyl)methyl]-4-(cycloheptylmethyl)-4,5-dihydro-1,2,4-oxadiazol-5-one]
129 nM | 165 nM | 200 to 1000 nM | O=c1onc(Cc2ccc(F)cc2Cl)n1CC1CCCCC1 [Example 114, 3-[(2-chloro-4-fluorophenyl)methyl]-4-(cyclohexylmethyl)-4,5-dihydro-1,2,4-oxadiazol-5-one]
399 nM | 72.7 nM | 200 to 1000 nM | O=c1onc(Cc2cccc(Cl)c2Cl)n1CC1CCCCC1 [Example 115, 4-(cyclohexylmethyl)-3-[(2,3-dichlorophenyl)methyl]-4,5-dihydro-1,2,4-oxadiazol-5-one]
284 nM | 466 nM | 200 to 1000 nM | O=c1onc(Cc2ccccc2C(F)(F)F)n1CC1CCCCC1 [Example 116, 4-(cyclohexylmethyl)-3-{[2-(trifluoromethyl)phenyl]methyl}-4,5-dihydro-1,2,4-oxadiazol-5-one]
143 nM | 94.9 nM | 200 to 1000 nM | O=c1onc(Cc2ccccc2Cl)n1CC1CCCCC1 [Example 117, 3-[(2-chlorophenyl)methyl]-4-(cyclohexylmethyl)-4,5-dihydro-1,2,4-oxadiazol-5-one]
618 nM | 1090 nM | 200 to 1000 nM | O=c1onc(Cc2ccc(Cl)cc2Cl)n1CC1CCCCC1 [Example 118, 4-(cyclohexylmethyl)-3-[(2,4-dichlorophenyl)methyl]-4,5-dihydro-1,2,4-oxadiazol-5-one]
547 nM | 268 nM | 200 to 1000 nM | O=c1onc(Cc2ccc(F)cc2F)n1CC1CCCCC1 [Example 119, 4-(cyclohexylmethyl)-3-[(2,4-difluorophenyl)methyl]-4,5-dihydro-1,2,4-oxadiazol-5-one]
590 nM | 162 nM | 200 to 1000 nM | O=c1onc(Cc2ccccc2F)n1CC1CCCCC1 [Example 120, 4-(cyclohexylmethyl)-3-[(2-fluorophenyl)methyl]-4,5-dihydro-1,2,4-oxadiazol-5-one]
233 nM | 94.8 nM | 200 to 1000 nM | O=c1onc(CC2CCCCC2)n1Cc1c(F)cccc1Cl [Example 130, 4-[(2-chloro-6-fluorophenyl)methyl]-3-(cyclohexylmethyl)-4,5-dihydro-1,2,4-oxadiazol-5-one]
467 nM | 153 nM | 200 to 1000 nM | O=c1onc(Cc2c(F)cccc2Cl)n1CCC1CCCCC1 [Example 142, 3-(2-chloro-6-fluorobenzyl)-4-(2-cyclohexylethyl)-1,2,4-oxadiazol-5(4H)-one]

Second part, the compound before the results:

Structure (SMILES) | IC50 (P2X7 receptor [1]) | IC50 (P2X7 receptor [2]) | IC50 (P2X7 receptor [3])
CC1CCCCC1Cn1c(Cc2c(F)cccc2Cl)noc1=O (stereo not drawn) [Example 87, 3-[(2-chloro-6-fluorophenyl)methyl]-4-[(2-methylcyclohexyl)methyl]-4,5-dihydro-1,2,4-oxadiazol-5-one] | 82 nM | 44.1 nM | < 200 nM
O=c1onc(Cc2c(F)cccc2Cl)n1CC1CC2CCC1C2 (stereo not drawn) [Example 88, 4-{bicyclo[2.2.1]heptan-2-ylmethyl}-3-[(2-chloro-6-fluorophenyl)methyl]-4,5-dihydro-1,2,4-oxadiazol-5-one] | 63 nM | 34.5 nM | < 200 nM
O=c1onc(Cc2c(F)cccc2Cl)n1CC12CCC(CC1)C2 [Example 91, 4-{bicyclo [2.2.1]heptan-1-ylmethyl}-3-[(2-chloro-6-fluorophenyl)methyl]-4,5-dihydro-1,2,4-oxadiazol-5-one] | 45 nM | 22 nM | < 200 nM
O=c1onc(Cc2c(F)cccc2Cl)n1CC1CCCCO1 (stereo not drawn) [Example 94, 3-[(2-chloro-6-fluorophenyl)methyl]-4-(oxan-2-ylmethyl)-4,5-dihydro-1,2,4-oxadiazol-5-one] | 435 nM | 332 nM | 200 to 1000 nM
O=c1onc(Cc2c(F)cccc2Cl)n1CC1(F)CCCCC1 [Example 96, 3-[(2-chloro-6-fluorophenyl)methyl]-4-[(1-fluorocyclohexyl)methyl]-4,5-dihydro-1,2,4-oxadiazol-5-one] | 523 nM | 245 nM | 200 to 1000 nM
O=c1onc(Cc2c(F)cccc2Cl)n1CC1CCCCC1(F)F (stereo not drawn) [Example 97, 3-[(2-chloro-6-fluorophenyl)methyl]-4-[(2,2-difluorocyclohexyl)methyl]-4,5-dihydro-1,2,4-oxadiazol-5-one] | 193 nM | 100 nM | < 200 nM
CC1(C)CCCCC1Cn1c(Cc2c(F)cccc2Cl)noc1=O (stereo not drawn) [Example 99, 3-[(2-chloro-6-fluorophenyl)methyl]-4-[(2,2-dimethylcyclohexyl)methyl]-4,5-dihydro-1,2,4-oxadiazol-5-one] | 142 nM | 124 nM | 200 to 1000 nM
O=c1onc(CC2CCC(F)(F)CC2)n1Cc1c(F)cccc1Cl [Example 132, 4-[(2-chloro-6-fluorophenyl)methyl]-3-[(4,4-difluorocyclohexyl)methyl]-4,5-dihydro-1,2,4-oxadiazol-5-one] | 32 nM | 3.36 nM | < 200 nM
O=c1snc(Cc2c(F)cccc2Cl)n1CC1CCCCC1 [Example 140, 3-[(2-chloro-6-fluorophenyl)methyl]-4-(cyclohexylmethyl)-4,5-dihydro-1,2,4-thiadiazol-5-one] | 181 nM | 39.2 nM | 200 to 1000 nM
O=c1snc(Cc2c(F)cccc2Cl)n1CC1CCC(F)(F)CC1 [Example 141, 3-[(2-chloro-6-fluorophenyl)methyl]-4-[(4,4-difluorocyclohexyl)methyl]-4,5-dihydro-1,2,4-thiadiazol-5-one] | 31 nM | 3.04 nM | < 200 nM
